Laboratory results reported in patent US20180155344A1, “TRICYCLIC PIPERIDINE COMPOUNDS” (ACTELION PHARMACEUTICALS LTD, priority 2015, published 2018).

Target: T1, human TPH1 (Homo sapiens, UniProt P17752)
T1 sequence (P17752 1-444): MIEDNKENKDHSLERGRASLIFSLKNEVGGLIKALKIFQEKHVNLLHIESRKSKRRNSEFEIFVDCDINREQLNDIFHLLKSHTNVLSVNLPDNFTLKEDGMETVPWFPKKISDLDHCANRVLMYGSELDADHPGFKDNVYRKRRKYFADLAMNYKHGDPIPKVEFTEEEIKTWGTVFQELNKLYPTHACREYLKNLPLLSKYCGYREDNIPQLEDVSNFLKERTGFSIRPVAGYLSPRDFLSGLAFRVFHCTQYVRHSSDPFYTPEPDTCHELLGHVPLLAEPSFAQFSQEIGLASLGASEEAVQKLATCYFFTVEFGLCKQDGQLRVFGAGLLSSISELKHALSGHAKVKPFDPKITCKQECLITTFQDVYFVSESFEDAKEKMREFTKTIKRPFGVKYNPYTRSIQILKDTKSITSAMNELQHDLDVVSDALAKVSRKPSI
Assay: biochemical
In short: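 Inhibition is derived from 5-hydroxy-L-tryptophan fluorescence (540 nm emission, 300 nm excitation) after perchloric acid stop, relative to DMSO vehicle. Recombinant full-length human enzyme (40-80 nM) reacts with 40 μM tryptophan plus 100 μM methyltetrahydropterin, pH 7.6 Tris/DTT/catalase, 15° C, 60 min.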

IC50	SMILES
59 nM	COc1ccc(C2c3c(nc4cc(Cl)ccn34)CCN2C(=O)COc2ccc(CN3CCOCC3)nc2Cl)c(F)c1 (stereo not shown) [Example 2.3.2, 1-(7-chloro-1-(2-fluoro-4-methoxyphenyl)-3,4-dihydroimidazo[1,2-a:5,4-c′]dipyridin-2(1H)-yl)-2-((2-chloro-6-(morpholinomethyl)pyridin-3-yl)oxy)ethan-1-one]
208 nM	COc1ccc(C2c3c(nc4cc(Cl)ccn34)CCN2C(=O)COc2nn(C)c(C(F)(F)F)c2Cl)c(F)c1 (stereo not shown) [Example 2.3.3, 1-(7-chloro-1-(2-fluoro-4-methoxyphenyl)-3,4-dihydroimidazo[1,2-a:5,4-c′]dipyridin-2(1H)-yl)-2-((4-chloro-1-methyl-5-(trifluoromethyl)-1H-pyrazol-3-yl)oxy)ethan-1-one]
12 nM	COc1ccc([C@@H]2c3c(nc4cc(Cl)ccn34)CCN2C(=O)COc2ccc(N3CCOCC3)cc2Cl)c(F)c1 [Example 2.3.4, 1-((1R)-7-chloro-1-(2-fluoro-4-methoxyphenyl)-3,10a-dihydroimidazo[1,2-a:5,4-c′]dipyridin-2(1H)-yl)-2-(2-chloro-4-morpholinophenoxy)ethan-1-one]
8 nM	CS(=O)(=O)Nc1ccc(OCC(=O)N2CCc3nc4cc(Cl)ccn4c3C2c2ccc(Cl)cc2F)c(Cl)n1 (stereo not shown) [Example 2.4.1, N-(6-chloro-5-(2-(7-chloro-1-(4-chloro-2-fluorophenyl)-3,4-dihydroimidazo[1,2-a:5,4-c′]dipyridin-2(1H)-yl)-2-oxoethoxy)pyridin-2-yl)methanesulfonamide]
89 nM	COc1ccc([C@@H]2c3c(nc4cc(Cl)ccn34)CCN2C(=O)COc2ccc(N3CCOCC3)cc2Cl)cn1 [Example 2.5.1, 1-((1R)-7-chloro-1-(6-methoxypyridin-3-yl)-3,10a-dihydroimidazo[1,2-a:5,4-c′]dipyridin-2(1H)-yl)-2-(2-chloro-4-morpholinophenoxy)ethan-1-one]
225 nM	CC(C)c1noc(C2c3c(nc4cc(Cl)ccn34)CCN2C(=O)COc2ccc(N3CCOCC3)nc2Cl)n1 (stereo not shown) [Example 2.6.1, 1-(7-chloro-1-(3-isopropyl-1,2,4-oxadiazol-5-yl)-3,4-dihydroimidazo[1,2-a:5,4-c′]dipyridin-2(1H)-yl)-2-((2-chloro-6-morpholinopyridin-3-yl)oxy)ethan-1-one]
60 nM	COc1ccc(COc2cc(C3c4c(nc5cc(Cl)ccn45)CCN3C(=O)COc3ccc4ccccc4c3)ccc2OC)cc1 (stereo not shown) [Example 2.7.1, 1-(7-chloro-1-(4-methoxy-3-((4-methoxybenzyl)oxy)phenyl)-3,4-dihydroimidazo[1,2-a:5,4-c′]dipyridin-2(1H)-yl)-2-(naphthalen-2-yloxy)ethan-1-one]
219 nM	COc1ccc(C2c3c(nc4cc(Cl)ccn34)CCN2C(=O)COc2ccc3ccccc3c2)cc1O (stereo not shown) [Example 2.8.1, 1-(7-chloro-1-(3-hydroxy-4-methoxyphenyl)-3,4-dihydroimidazo[1,2-a:5,4-c′]dipyridin-2(1H)-yl)-2-(naphthalen-2-yloxy)ethan-1-one]
154 nM	COc1ccc(C2c3c(nc4cc(Cl)ccn34)CCN2C(=O)COc2ccc(CN3CCOCC3)cc2Cl)cc1O (stereo not shown) [Example 2.8.2, 1-(7-chloro-1-(3-hydroxy-4-methoxyphenyl)-3,4-dihydroimidazo[1,2-a:5,4-c′]dipyridin-2(1H)-yl)-2-(2-chloro-4-(morpholinomethyl)phenoxy)ethan-1-one]
30 nM	COc1ccc(C2c3c(nc4cc(Cl)ccn34)CCN2C(=O)COc2ccc3ccccc3c2)cc1OC[C@@H](O)CO (stereo partly drawn) [Example 2.9.1, 1-(7-chloro-1-(3-((S)-2,3-dihydroxypropoxy)-4-methoxyphenyl)-3,4-dihydroimidazo[1,2-a:5,4-c′]dipyridin-2(1H)-yl)-2-(naphthalen-2-yloxy)ethan-1-one]
34 nM	COc1ccc(C2c3c(nc4cc(Cl)ccn34)CCN2C(=O)COc2ccc3ccccc3c2)cc1OC[C@H](O)CO (stereo partly drawn) [Example 2.10.1, 1-(7-chloro-1-(3-((R)-2,3-dihydroxypropoxy)-4-methoxyphenyl)-3,4-dihydroimidazo[1,2-a:5,4-c′]dipyridin-2(1H)-yl)-2-(naphthalen-2-yloxy)ethan-1-one]
19 nM	COc1ccc(C2c3c(nc4cc(Cl)ccn34)CCN2C(=O)COc2ccc(CN3CCOCC3)cc2Cl)cc1OC[C@H](O)CO (stereo partly drawn) [Example 2.10.2, 1-(7-chloro-1-(3-((R)-2,3-dihydroxypropoxy)-4-methoxyphenyl)-3,4-dihydroimidazo[1,2-a:5,4-c′]dipyridin-2(1H)-yl)-2-(2-chloro-4-(morpholinomethyl)phenoxy)ethan-1-one]
32 nM	COCCCOc1cc(C2c3c(nc4cc(Cl)ccn34)CCN2C(=O)COc2ccc3ccccc3c2)ccc1OC (stereo not shown) [Example 2.11.1, 1-(7-chloro-1-(4-methoxy-3-(3-methoxypropoxy)phenyl)-3,4-dihydroimidazo[1,2-a:5,4-c′]dipyridin-2(1H)-yi)-2-(naphthalen-2-yloxy)ethan-1-one]
22 nM	COc1ccc(C2c3c(nc4cc(Cl)ccn34)CCN2C(=O)COc2ccc3ccccc3c2)cc1OCCCO (stereo not shown) [Example 2.12.1, 1-(7-chloro-1-(3-(3-hydroxypropoxy)-4-methoxyphenyl)-3,4-dihydroimidazo[1,2-a:5,4-c′]dipyridin-2(1H)-yl)-2-(naphthalen-2-yloxy)ethan-1-one]
34 nM	COc1ccc(C2c3c(nc4cc(Cl)ccn34)CCN2C(=O)COc2ccc3ccccc3c2)cc1OCCO (stereo not shown) [Example 2.13.1, 1-(7-chloro-1-(3-(2-hydroxyethoxy)-4-methoxyphenyl)-3,4-dihydroimidazo[1,2-a:5,4-c′]dipyridin-2(1H)-yl)-2-(naphthalen-2-yloxy)ethan-1-one]
23 nM	COc1ccc(C2c3c(nc4cc(Cl)ccn34)CCN2C(=O)COc2ccc(CN3CCOCC3)cc2Cl)cc1OCCO (stereo not shown) [Example 2.13.2, 1-(7-chloro-1-(3-(2-hydroxyethoxy)-4-methoxyphenyl)-3,4-dihydroimidazo[1,2-a:5,4-c′]dipyridin-2(1H)-yl)-2-(2-chloro-4-(morpholinomethyl)phenoxy)ethan-1-one]
88 nM	COC(=O)COc1cc(C2c3c(nc4cc(Cl)ccn34)CCN2C(=O)COc2ccc(CN3CCOCC3)cc2Cl)ccc1OC (stereo not shown) [Example 2.14.1, Methyl 2-(5-(7-chloro-2-(2-(2-chloro-4-(morpholinomethyl)phenoxy)acetyl)-1,2,3,4-tetrahydroimidazo[1,2-a:5,4-c′]dipyridin-1-yl)-2-methoxyphenoxy)acetate]
51 nM	Cc1ccc(C2c3c(nc4cc(Cl)ccn34)CCN2C(=O)COc2ccc(NS(C)(=O)=O)nc2Cl)c(F)c1 (stereo not shown) [Example 2.15.1, N-(6-chloro-5-(2-(7-chloro-1-(2-fluoro-4-methylphenyl)-3,4-dihydroimidazo[1,2-a:5,4-c′]dipyridin-2(1H)-yl)-2-oxoethoxy)pyridin-2-yl)methanesulfonamide]
15 nM	COc1ccc(C2c3c(nc4cc(C(F)(F)F)ccn34)CCN2C(=O)COc2ccc3ccccc3c2)cc1OC (stereo not shown) [Example 3.1.1, 1-(1-(3,4-dimethoxyphenyl)-7-(trifluoromethyl)-3,4-dihydroimidazo[1,2-a:5,4-c′]dipyridin-2(1H)-yl)-2-(naphthalen-2-yloxy)ethan-1-one]
